Drawing on patent US9062057B2, “CCR5 antagonists for treating HIV” (Purdue Research Foundation, priority 2010, dated 2015), this text covers IC50 for 6 molecules.

The target in the experiment is CCR5 chemokine receptor (Homo sapiens, UniProt P51681). The experiment in a line: Inhibition Data (IC50; no method described). The settings on record: assay not described, read-out: Activity (*) (IC50 class).
CCR5 chemokine receptor, sequence (P51681 whole entry): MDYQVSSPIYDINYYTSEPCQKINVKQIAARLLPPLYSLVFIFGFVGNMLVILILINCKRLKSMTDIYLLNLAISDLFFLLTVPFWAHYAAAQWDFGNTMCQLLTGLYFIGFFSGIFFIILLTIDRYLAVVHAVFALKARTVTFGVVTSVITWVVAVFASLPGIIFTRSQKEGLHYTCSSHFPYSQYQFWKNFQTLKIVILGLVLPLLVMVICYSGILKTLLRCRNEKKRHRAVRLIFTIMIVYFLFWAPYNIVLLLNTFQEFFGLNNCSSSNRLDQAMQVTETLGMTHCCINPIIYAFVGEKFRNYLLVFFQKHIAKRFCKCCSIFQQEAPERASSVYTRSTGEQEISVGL
As for `CN(CC(C)(CCN1CCC2C(CCN2C(=O)OC(C)(C)C)C1)c1ccccc1)S(=O)(=O)c1ccc(CN)cc1` (stereo not drawn) [Example 41], the IC50 (in general, the point on the concentration scale where inhibition reaches its midpoint) was under 1000 nM. Take `Cc1nnc(C2CO[C@H]3OCCC23)n1C1CC2CCC(C1)N2CC[C@H](NS(=O)(=O)c1ccc2c(c1)OCO2)c1ccccc1` (stereo partly drawn) [Example 81]: the IC50 was under 1000 nM.

As for `COC(OC)c1ccc(S(=O)(=O)N(C)CC(C)(CCN2CCC3C(CCN3C(=O)OC(C)(C)C)C2)c2ccccc2)cc1` (stereo not drawn) [Example 36], the IC50 is under 100 nM.

On to `CN(C[C@@](C)(CCN1C2CCC1CC(NC(=O)OCc1ccccc1)C2)c1ccccc1)S(=O)(=O)c1ccccc1` (stereo partly drawn) [Example 6], for which the concentration for half-maximal inhibition (IC50) is under 100 nM.

For the molecule `CN(C[C@@](C)(CCN1CCc2[nH][nH]c(=O)c2C1)c1ccccc1)S(=O)(=O)c1ccccc1` [Example 78], the IC50 was under 1000 nM. Turning to `CN(C[C@@](C)(CCN1CC[C@@H]2[C@@H](CCN2C(=O)OC(C)(C)C)C1)c1ccccc1)S(=O)(=O)c1ccccc1` [Example 46], the IC50 was under 1000 nM.
